Paper PMC6009943, “One-pot three-component synthesis of novel spirooxindoles with potential cytotoxic activity against triple-negative breast cancer MDA-MB-231 cells” (Journal of Enzyme Inhibition and Medicinal Chemistry, 2017)
Where two headings read alike, the source gives them in different places.

How the values were obtained:
[1] = tested on: MDA-MB-231 cells; assay: In vitro anti-proliferative activity assay (MTT); type: cell-based; conditions: Homo sapiens, 48 h incubation
Protocol: Cells lines were maintained as monolayers in Dulbecco’s Modified Eagle’s Medium (DMEM) supplemented with 10% FBS, 2 mM L-glutamine, 100 U/ml penicillin and 100 µg/ml streptomycin sulfate. Cells were sub-cultured with trypsine/EDTA solution, counted with haemocytometer and plated onto 96-well plates (5000 cells/well) and left overnight to form a semi-confluent monolayer. […] DMSO (100 µl/well) was added to dissolve the formazan crystals with shaking for 10 min after which the absorbance was read at 590 nm against no cell blanks on a FLuo Star Optima microplate reader (BMG Technologies, Germany). Cell proliferation was calculated comparing the OD values of the DMSO control wells and those of the samples represented as % proliferation to the control.
The in vitro anti-proliferative activity of the newly synthesized spirooxindoles 6a–p was examined against TNBC MDA-MB-231 cells. This assay was performed utilizing the 3–(4,5-dimethylthiazol-2-yl)-2,5-diphenyltetrazolium bromide (MTT) colorimetric assay as described by Mosmann[18]. Adriamycin was included in this assay as a reference drug.

[2] = target: T1, EGFR (Homo sapiens, UniProt P00533); assay: EGFR kinase ELISA assay; type: biochemical; conditions: colorimetric ELISA, mean ± SD of three separate experiments
T1 construct: purchased BPS Biosciences 40321
Protocol: Percent inhibition was calculated by the comparison of compounds treated to control incubations.
Erlotinib, a clinically used EGFR inhibitor, was taken as the reference drug.

[3] = tested on: caspase-3; assay: Active caspase-3 level in MDA-MB-231 cells (ELISA); type: cell-based; conditions: MDA-MB-231 cells treated with compound at its IC50 concentration
Protocol: (§1) The levels of the apoptotic markers (Bax, caspase-3) as well as the anti-apoptotic marker (Bcl-2) were assessed using ELISA colorimetric kits per the manufacturer’s protocol and referring to reported instructions[21]^,[22].
Caspases, a family of cysteineaspartic proteases, are the crucial apoptosis mediators that provide essential links in cell regulatory networks controlling cell death. Caspase-3 is the key executioner caspase which modifies proteins ultimately responsible for apoptosis.

[4] = tested on: Bcl-2; assay: Bcl-2 level in MDA-MB-231 cells (ELISA); type: cell-based; conditions: MDA-MB-231 cells treated with compound at its IC50 concentration
Protocol: as §1
(§2) Bcl-2 family comprises a group of crucial regulatory factors in apoptosis that finely tune the apoptotic switch on/off mechanism. Based on their functional and structural criteria, the members are divided into two major classes; group I proteins that are anti-apoptotic and group II proteins that are apoptotic. Group I anti-apoptotic proteins exert their function by inhibiting group II apoptotic proteins through simply binding to them. Group I proteins bind selectively to the active conformations of group II proteins to prevent them from being inserted into the mitochondria and thus cease the release of pro-apoptotic factors such as cytochrome c, ultimately aborting apoptosis. Thus, the inhibition of group I proteins and/or the activation of group II proteins can successfully induce apoptosis.

[5] = tested on: Bax; assay: Bax level in MDA-MB-231 cells (ELISA); type: cell-based; conditions: MDA-MB-231 cells treated with compound at its IC50 concentration
Protocol: as §1, §2

[6] = tested on: WI-38 cells; assay: In vitro cytotoxic activity, WI-38 cells (MTT); type: cell-based, human; conditions: for IC50: WI-38, MTT assay, human normal lung fibroblast cell line, read-out: IC50 (µM) WI-38; for Selectivity Index: WI-38 versus MDA-MB-231
Protocol: WI-38 cells ([…]), were obtained from American Type Culture Collection. The cells were propagated in DMEM supplemented with 10% heat-inactivated FBS (Hyclone), 10 μg/ml of insulin (Sigma), and 1% penicillin-streptomycin. All of the other chemicals and reagents were from Sigma, or Invitrogen. Cytotoxicity was determined using MTT assay following a reported procedure.

[7] = tested on: MDA-MB-231 cancer cell line; conditions: cited from earlier work

T1 sequence (P00533 25-1210): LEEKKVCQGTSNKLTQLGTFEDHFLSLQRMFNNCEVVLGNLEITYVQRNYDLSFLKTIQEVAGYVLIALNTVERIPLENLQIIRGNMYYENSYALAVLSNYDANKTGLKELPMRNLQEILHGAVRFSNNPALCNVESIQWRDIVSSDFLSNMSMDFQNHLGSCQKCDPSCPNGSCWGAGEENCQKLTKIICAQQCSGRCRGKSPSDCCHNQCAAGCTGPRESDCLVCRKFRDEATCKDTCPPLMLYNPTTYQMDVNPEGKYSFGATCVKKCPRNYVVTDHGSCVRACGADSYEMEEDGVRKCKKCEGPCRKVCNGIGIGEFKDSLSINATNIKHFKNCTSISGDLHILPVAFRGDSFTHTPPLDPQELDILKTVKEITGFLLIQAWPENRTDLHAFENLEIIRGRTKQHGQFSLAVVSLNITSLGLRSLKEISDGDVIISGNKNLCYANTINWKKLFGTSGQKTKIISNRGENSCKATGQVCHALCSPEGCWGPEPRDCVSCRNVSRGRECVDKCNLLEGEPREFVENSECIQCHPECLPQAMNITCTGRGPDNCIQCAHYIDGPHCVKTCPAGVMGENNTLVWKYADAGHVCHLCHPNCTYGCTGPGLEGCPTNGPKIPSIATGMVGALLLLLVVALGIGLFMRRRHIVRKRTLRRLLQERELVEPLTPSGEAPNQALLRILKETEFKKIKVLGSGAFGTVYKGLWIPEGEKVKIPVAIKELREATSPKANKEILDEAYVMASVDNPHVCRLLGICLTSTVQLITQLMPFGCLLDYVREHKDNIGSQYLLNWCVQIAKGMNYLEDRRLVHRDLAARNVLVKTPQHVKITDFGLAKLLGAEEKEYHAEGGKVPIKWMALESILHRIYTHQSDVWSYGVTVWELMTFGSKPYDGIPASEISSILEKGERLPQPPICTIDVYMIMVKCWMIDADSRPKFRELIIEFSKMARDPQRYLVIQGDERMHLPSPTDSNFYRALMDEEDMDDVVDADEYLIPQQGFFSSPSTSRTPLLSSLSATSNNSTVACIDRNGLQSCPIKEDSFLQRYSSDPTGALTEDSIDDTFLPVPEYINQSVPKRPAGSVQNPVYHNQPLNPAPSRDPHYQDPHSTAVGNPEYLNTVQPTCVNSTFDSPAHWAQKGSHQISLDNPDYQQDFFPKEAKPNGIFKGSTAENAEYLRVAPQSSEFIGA

Compound	melting point [°C]	IC50 [1] [µM]	further results
COc1cccc2c1C(=O)c1c(O)c3c(c(O)c1C2=O)C[C@@](O)(C(=O)CO)C[C@@H]3O[C@H]1C[C@H](N)[C@H](O)[C@H](C)O1 [Adriamycin, reference compound]		0.12	
N#CC1=C(c2ccccc2)Nc2c(c(-c3cccs3)nn2-c2ccccc2)C12C(=O)Nc1ccccc12 (stereo not shown) [Compound 6a, 2-Oxo-1',6'-diphenyl-3'-(thiophen-2-yl)-1',7'-dihydrospiro[indoline-3,4'-pyrazolo[3,4-b]pyridine]-5'-carbonitrile]		6.7	Caspase-3 [3]: 0.3501 ng/mL; IC50 [2]: 0.43 ± 0.04 µM; Bcl-2 [4]: 0.3958 ng/mL; Bcl-2, number of folds of control [4]: 0.147 folds; Bcl-2 expression compared to basal level in the control [4]: 14.7%; Bax [5]: 405.5 pg/mL; Bax, number of folds of control [5]: 506.8 folds; IC50 [6]: 78.1 µM; Selectivity Index [6]: 11.7
N#CC1=C(c2ccccc2)Nc2c(c(-c3cccs3)nn2-c2ccccc2)C12C(=O)Nc1ccc(Br)cc12 (stereo not shown) [Compound 6i, 5-Bromo-2-oxo-1',6'-diphenyl-3'-(thiophen-2-yl)-1',7'-dihydrospiro[indoline-3,4'-pyrazolo[3,4-b]pyridine]-5'-carbonitrile]		6.7	IC50 [2]: 0.12 ± 0.01 µM; IC50 [6]: 39.3 µM; Selectivity Index [6]: 5.9
N#CC1=C(c2ccc(Cl)cc2)Nc2c(c(-c3cccs3)nn2-c2ccccc2)C12C(=O)Nc1ccccc12 (stereo not shown) [Compound 6d, 6'-(4-Chlorophenyl)-2-oxo-1'-phenyl-3'-(thiophen-2-yl)-1',7'-dihydrospiro[indoline-3,4'-pyrazolo[3,4-b]pyridine]-5'-carbonitrile]	279 to 281	12	IC50 [2]: 0.36 ± 0.02 µM
O=C(c1ccc(OCCN2CCCC2)cc1)C1C(c2ccccc2)C2CSC(c3ccccc3)N2C12C(=O)Nc1ccc(Cl)cc12 (stereo not shown) [compound (iv)]			IC50 ([7]; reported compound of Figure 1, reference not given, read-out: IC50, cytotoxicity against MDA-MB-231): 4.2 µM
Cc1ccc(C2=C(C#N)C3(C(=O)Nc4ccccc43)c3c(-c4cccs4)nn(-c4ccccc4)c3N2)cc1 (stereo not shown) [Compound 6b, 2-Oxo-1'-phenyl-3'-(thiophen-2-yl)-6'-(p-tolyl)-1',7'-dihydrospiro[indoline-3,4'-pyrazolo[3,4-b]pyridine]-5'-carbonitrile]	285 to 287	29.7	
N#CC1=C(c2ccc(Cl)cc2)Nc2c(c(-c3cccs3)nn2-c2ccccc2)C12C(=O)Nc1ccc(Cl)cc12 (stereo not shown) [Compound 6h, 5-Chloro-6'-(4-chlorophenyl)-2-oxo-1'-phenyl-3'-(thiophen-2-yl)-1',7'-dihydrospiro[indoline-3,4'-pyrazolo[3,4-b]pyridine]-5'-carbonitrile]	281 to 283	16.6	
CC(C)OC(=O)C1=C(N)OC2=C(C(=O)OC2)C12C(=O)Nc1ccc(Cl)cc12 (stereo not shown) [compound (i)]			IC50 ([7]; read-out: IC50, cytotoxic activity against MDA-MB-231): 11 µM

More lines, main results first:

melting point [°C]	IC50 [1] [µM]	Compound	further results
286 to 288	18.2	Cc1ccc(C2=C(C#N)C3(C(=O)Nc4ccc(Cl)cc43)c3c(-c4cccs4)nn(-c4ccccc4)c3N2)cc1 (stereo not shown) [Compound 6f, 5-Chloro-2-oxo-1'-phenyl-3'-(thiophen-2-yl)-6'-(p-tolyl)-1',7'-dihydrospiro[indoline-3,4'-pyrazolo[3,4-b]pyridine]-5'-carbonitrile]	
> 300	12.7	COc1ccc(C2=C(C#N)C3(C(=O)Nc4ccc(Br)cc43)c3c(-c4cccs4)nn(-c4ccccc4)c3N2)cc1 (stereo not shown) [Compound 6k, 5-Bromo-6'-(4-methoxyphenyl)-2-oxo-1'-phenyl-3'-(thiophen-2-yl)-1',7'-dihydrospiro[indoline-3,4'-pyrazolo[3,4-b]pyridine]-5'-carbonitrile]	IC50 [2]: 0.31 ± 0.02 µM
255 to 257	> 50	COc1ccc2c(c1)C1(C(=O)N2)C(C#N)=C(c2ccc(Cl)cc2)Nc2c1c(-c1cccs1)nn2-c1ccccc1 (stereo not shown) [Compound 6p, 6'-(4-Chlorophenyl)-5-methoxy-2-oxo-1'-phenyl-3'-(thiophen-2-yl)-1',7'-dihydrospiro[indoline-3,4'-pyrazolo[3,4-b]pyridine]-5'-carbonitrile]	
296 to 298	37.8	COc1ccc(C2=C(C#N)C3(C(=O)Nc4ccccc43)c3c(-c4cccs4)nn(-c4ccccc4)c3N2)cc1 (stereo not shown) [Compound 6c, 6'-(4-Methoxyphenyl)-2-oxo-1'-phenyl-3'-(thiophen-2-yl)-1',7'-dihydrospiro[indoline-3,4'-pyrazolo[3,4-b]pyridine]-5'-carbonitrile]	
268 to 269	> 50	COc1ccc2c(c1)C1(C(=O)N2)C(C#N)=C(c2ccc(C)cc2)Nc2c1c(-c1cccs1)nn2-c1ccccc1 (stereo not shown) [Compound 6n, 5-Methoxy-2-oxo-1'-phenyl-3'-(thiophen-2-yl)-6'-(p-tolyl)-1',7'-dihydrospiro[indoline-3,4'-pyrazolo[3,4-b]pyridine]-5'-carbonitrile]	
276 to 278	17.5	COc1ccc2c(c1)C1(C(=O)N2)C(C#N)=C(c2ccccc2)Nc2c1c(-c1cccs1)nn2-c1ccccc1 (stereo not shown) [Compound 6m, 5-Methoxy-2-oxo-1',6'-diphenyl-3'-(thiophen-2-yl)-1',7'-dihydrospiro[indoline-3,4'-pyrazolo[3,4-b]pyridine]-5'-carbonitrile]	
282 to 284	13.5	Cc1ccc(C2=C(C#N)C3(C(=O)Nc4ccc(Br)cc43)c3c(-c4cccs4)nn(-c4ccccc4)c3N2)cc1 (stereo not shown) [Compound 6j, 5-Bromo-2-oxo-1'-phenyl-3'-(thiophen-2-yl)-6'-(p-tolyl)-1',7'-dihydrospiro[indoline-3,4'-pyrazolo[3,4-b]pyridine]-5'-carbonitrile]	IC50 [2]: 0.51 ± 0.04 µM
279 to 281	> 50	COc1ccc(C2=C(C#N)C3(C(=O)Nc4ccc(OC)cc43)c3c(-c4cccs4)nn(-c4ccccc4)c3N2)cc1 (stereo not shown) [Compound 6o, 5-Methoxy-6'-(4-methoxyphenyl)-2-oxo-1'-phenyl-3'-(thiophen-2-yl)-1',7'-dihydrospiro[indoline-3,4'-pyrazolo[3,4-b]pyridine]-5'-carbonitrile]	
293 to 294	30.6	N#CC1=C(c2ccc(Cl)cc2)Nc2c(c(-c3cccs3)nn2-c2ccccc2)C12C(=O)Nc1ccc(Br)cc12 (stereo not shown) [Compound 6l, 5-Bromo-6'-(4-chlorophenyl)-2-oxo-1'-phenyl-3'-(thiophen-2-yl)-1',7'-dihydrospiro[indoline-3,4'-pyrazolo[3,4-b]pyridine]-5'-carbonitrile]	
> 300	24.1	COc1ccc(C2=C(C#N)C3(C(=O)Nc4ccc(Cl)cc43)c3c(-c4cccs4)nn(-c4ccccc4)c3N2)cc1 (stereo not shown) [Compound 6g, 5-Chloro-6'-(4-methoxyphenyl)-2-oxo-1'-phenyl-3'-(thiophen-2-yl)-1',7'-dihydrospiro[indoline-3,4'-pyrazolo[3,4-b]pyridine]-5'-carbonitrile]	
